Tested on: c-Myc27 oligonucleotide G-quadruplex
Test: ECD melting curve of c-Myc27 oligonucleotide G-quadruplex with ligands
Assay type: binding
Details: ECD at 263 nm; molar ratio oligonucleotide:ligand 1:1 (5 μmol l^−1 each); Li+-cacodylate buffer
Protocol: ECD spectra were measured on J-815 spectrometer (Jasco, Japan). Measurement settings (Tab. 3), spectra saving and background subtraction was performed in a Spectra Manager software (Jasco, Japan).
For measurement of the temperature dependencies the cuvettes in the cuvette compartment were placed in the Peltier module, the temperature was controlled by the Spectra Manager software. Melting curves were measured at a wavelength which corresponds to the maximum difference in signal intensity of ECD spectra of oligonucleotide at 25 and 95° C., as shown in FIG. 1. Before and after measuring the melting curves, ECD spectra in extreme temperatures were measured, in order to verify the stability of the studied system.
Processing of the spectra was performed using Spectra Manager (Jasco, Japan). The resulting spectra were obtained from the measured sample spectrum after subtraction of background spectrum, which was spectrum of the solvent. Measuring of sample spectrum and background was conducted under identical conditions. ECD spectra are reported as ellipticity, labeled in the CD figures [mdeg], whose numerical value is associated with dimensionless circular dichroism ΔA (CDv=32980 ΔAv). This CD notations preserves conventions of the international journals in which articles from the field are published.
Stock solution of […] was prepared from c-Myc27 oligonucleotide by dissolution in H2O. The cuvette of 1 mm thickness was filled with 7 μl of oligonucleotide solution and 133 μl of Li^+-cacodylate buffer. Oligonucleotide solution in the cuvette was overlayed with mineral oil to measure temperature dependencies without concentration changes due to evaporation of the solvent at higher temperatures.
From stock solutions of the racemic ligands in DMSO at a concentration of […] solutions were prepared at a concentration of 140 μmol l^−1 by dissolving in H2O. Ligands were added to the solution of oligonucleotide under buffer/mineral oil interface using Hamilton microsyringe (5 μl of solution at a concentration of […]). The resulting molar ratio of oligonucleotide:ligand was 1:1.
The cuvette filled with c-Myc27 oligonucleotide solution in Li^+-cacodylate buffer (cc-Myc27=5 μmol l^−1) was first heated for 5 minutes at 95° C., at this temperature ECD spectrum was measured. Then the sample was cooled to 25° C., allowed to stabilize for 10 min and then ECD spectrum was measured again. Then, the melting curve of ECD oligonucleotide at 263 nm was measured in the temperature range 25-95° C. and for verification of the stability of the sample spectra the spectra were measured again at 95 and 25° C. Under the oil layer ligand solution (cligand=5 μmol l^−1) was added to a solution of oligonucleotide, the sample was thoroughly mixed and ECD spectrum measured at 25° C., the melting curve was obtained and again control spectra were measured at 95 and 25° C.
Decomposition of the G-quadruplex structure in the presence of ligands under influence of temperature was monitored at the wavelength corresponding to the maximum difference in signal intensities of ECD oligonucleotide/ligand at 25 and 95° C., i.e. at 263 nm. Thermal stability of G-quadruplex was monitored in the range of 25 to 95° C. and in a molar ratio of oligonucleotide:ligand=1:1. Example of influence of the studied ligand on the stability of G-quadruplex formed from c-Myc27 oligonucleotide is shown in FIG. 2.
The degree of G-quadruplex stabilization was expressed as change of melting temperature caused by the presence of G-quadruplex ligands (ΔTm): ΔTm=Tm,oligonucleotide+ligand−Tm,oligonucleotide (1), • where Tm,oligonucleotide+ligand is melting temperature of molecular system comprising the oligonucleotide and the ligand and Tm,oligonucleotide, the melting temperature of the oligonucleotide itself. Tab. 4 summarizes the changes in melting temperatures of c-Myc27 oligonucleotide G-quadruplex in the presence of studied ligands.

Cc1c(C)c2c(c3c1CC[n+]1ccc(/C=C/c4cccc5c4oc4ccccc45)cc1-3)-c1c3ccccc3cc[n+]1CC2 (racemic) [MJA-C13-8, (rac)-(E)-13-(2-(dibenzo[b,d]furan-4-yl)vinyl)-6,7-dimethyl-4,5,8,9-tetrahydroisoquinolino[1,2-a]pyrido[1,2-k][2,9]phenanthroline-3,10-diium trifluoromethanesulfonate]
ΔTm (° C.): 6.8 °C
